TGI data for 31 compounds are collected here from PubChem BioAssay (NCI).

In general, TGI refers to the concentration giving total growth inhibition.

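The compound was tested at five concentrations on cells cultured in 96-well plates, with a 48-hour exposure period. Definition used: TGI = concentration required for complete inhibition of growth.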 Where only a bound is given, the exact number is not on record here.

The subject of one experiment is MOLT-4 leukemia. The experiment can be described thus: DTP human tumour cell line panel, 48 h.
With `COc1cc2c(cc1OC)-c1c3cc(O)ccc3nn[n+]1CC2`, the TGI was more than 100 µM.
`C/C(CC(=O)CCC(=O)Nc1cccc(C(F)(F)F)c1)=N\NC(=O)NN` gave a TGI of more than 100 µM.
`N#CCCN(CCC#N)c1ccc(/C=C2\N=C(c3cc([N+](=O)[O-])ccc3Cl)OC2=O)cc1` had a TGI of 57.7 µM.
Compound `O=C(/C=C/c1ccccc1)NC1C=Nc2ccc(Cl)cc2NC1=O` (stereo not given) yielded a TGI of 27.3 µM.
`COc1ccccc1C12OC(=O)C1(C)Oc1ccccc1C2=O` (stereo not given) returned a TGI of more than 100 µM.
On to `O=C1C2C(C(=O)N1OS(=O)(=O)c1ccccc1)N(Cc1ccccc1)C(=O)N2Cc1ccccc1` (stereo not given), for which the TGI is more than 100 µM.
The same measure, in the same setting: with `O=C(COc1ccc(Br)cc1Br)N1N=C(c2ccc([N+](=O)[O-])o2)CC1(O)c1ccccc1` (stereo not given) the figure was 8.98 µM; with `N#CC(c1ccc(Cl)cc1)c1cccc(C(C#N)c2ccc(Cl)cc2)n1` (stereo not given), more than 100 µM.
Same read-out and setting: with `O=C1C(=O)N(c2ccc(Cl)cc2Cl)C(=O)C(=O)C1c1nc2ccccc2s1` the figure was more than 89.2 µM.
`Clc1cc2nsnc2c(Cl)n1` returned a TGI of 43.6 µM.
As for `N#CC1C(C#N)C2(c3ccccc3)C(c3ccccc3)=NN(c3ccccc3)CC12` (stereo not given), the TGI is more than 100 µM.
Compound `Cc1nc2ccccc2c(=O)n1-c1ccccc1I` displayed a TGI of more than 100 µM.
Take `O=C1/C(=C/c2ccccc2)CN(C(=O)C(Cl)(Cl)Cl)C/C1=C\c1ccccc1`: the TGI turned out to be 5.77 µM.
As for `COC1CCC2C(NS(=O)(=O)c3ccc(C)cc3)CCCC2O1` (stereo not given) (tested in a mixture with another compound), the TGI worked out at 20.9 µM.
`Cc1cc(C)nc(NS(=O)(=O)c2ccc(NC(=O)c3ccc(Cl)c4c(Nc5ccc(S(=O)(=O)Nc6nc(C)cc(C)n6)cc5)c5ccccc5nc34)cc2)n1` yielded a TGI of more than 100 µM.
In the case of `CC1=C(C(=O)NCc2ccccc2)C(/C=C/c2ccccc2)C(C(=O)NCc2ccccc2)=C(C)N1`, the TGI was more than 100 µM.
`O=S1(=O)c2ccccc2NC(c2ccc3ccccc3c2)CC1c1ccccc1F` (stereo not given) came in with a TGI of more than 100 µM.

The next experiment relates to NCI-H226 lung. The experiment can be described thus: DTP human tumour cell line panel, 48 h.
`O=C(O)c1ccccc1[Se][Se]c1ccccc1C(=O)O` yielded a TGI of 31.4 µM.
On the same count and under the same terms, then `CC(C)=CC(=O)C1c2cccc(O)c2C(=O)c2c(O)cc(C)cc21` (stereo not given), with 4.65 µM; and `COC(=O)CC1CCN(C#N)CC1CC[N+](=O)[O-]` (stereo not given), with more than 100 µM.
`Cc1ccc(N=Nc2ccc(N(CCC#N)CCC#N)cc2C)c(Br)c1` registered a TGI of 61.5 µM.
With `CC(C)C/C(CC(=O)CCC(=O)Nc1ccccc1[N+](=O)[O-])=N\NC(=O)c1cc2ccccc2cc1O`, the TGI is more than 100 µM.
In turn, `CCOc1ccc(NC(=O)C(=O)CC(=O)c2c[n+](=O)c3cc(C)c(C)cc3n2[O-])cc1` had a TGI of more than 100 µM.
`O=CC[C@H]1C(=O)C[C@@H]2CCC[C@@H]21`: the TGI was more than 100 µM.
Still for that read-out and setting: then `COC(CN1C(=O)c2cccc3cccc(c23)C1=O)OC`, with more than 100 µM.
On the same count and under the same terms, then `CCCCCCCCCCCCCCCCCC(CCCCCCCCCCCCCCCCC)OP(=O)(O)O`, with more than 100 µM; and `COC1(OC)CCC2C1C1CCC(OC)(OC)C21` (stereo not given), with more than 50 µM; and `CN1C(=O)C(C)(C)C2(SC(C)(C)C2(C)C)N(C)C1=S` (stereo not given), with more than 100 µM.
The compound `COc1cc2c(cc1OC)-c1c3cc(O)ccc3nn[n+]1CC2` came in with a TGI of more than 100 µM.
As to `C/C(CC(=O)CCC(=O)Nc1cccc(C(F)(F)F)c1)=N\NC(=O)NN`, the TGI was more than 100 µM.
The compound `N#CCCN(CCC#N)c1ccc(/C=C2\N=C(c3cc([N+](=O)[O-])ccc3Cl)OC2=O)cc1` returned a TGI of 44 µM.
`O=C(/C=C/c1ccccc1)NC1C=Nc2ccc(Cl)cc2NC1=O` (stereo not given) came in with a TGI of more than 100 µM.
Take `COc1ccccc1C12OC(=O)C1(C)Oc1ccccc1C2=O` (stereo not given): the TGI was more than 100 µM.
`O=C1C2C(C(=O)N1OS(=O)(=O)c1ccccc1)N(Cc1ccccc1)C(=O)N2Cc1ccccc1` (stereo not given): the TGI was more than 100 µM.
Compound `O=C(COc1ccc(Br)cc1Br)N1N=C(c2ccc([N+](=O)[O-])o2)CC1(O)c1ccccc1` (stereo not given) yielded a TGI of 36.4 µM. That is a double-digit micromolar value.
The same measure, in the same setting: then `N#CC(c1ccc(Cl)cc1)c1cccc(C(C#N)c2ccc(Cl)cc2)n1` (stereo not given), with more than 100 µM.
On to `O=C1C(=O)N(c2ccc(Cl)cc2Cl)C(=O)C(=O)C1c1nc2ccccc2s1`, for which the TGI is more than 100 µM.
As to `Clc1cc2nsnc2c(Cl)n1`, the TGI amounted to 42.3 µM.
For `N#CC1C(C#N)C2(c3ccccc3)C(c3ccccc3)=NN(c3ccccc3)CC12` (stereo not given), the TGI was more than 100 µM.
Compound `Cc1nc2ccccc2c(=O)n1-c1ccccc1I` displayed a TGI of more than 100 µM.
The same measure, in the same setting: with `COC1CCC2C(NS(=O)(=O)c3ccc(C)cc3)CCCC2O1` (stereo not given) (tested in a mixture with another compound) the figure was more than 34.5 µM.
For the compound `CN(C)C(=N)c1ccccc1`, the TGI is more than 100 µM.
In the case of `CC1=C(C(=O)NCc2ccccc2)C(/C=C/c2ccccc2)C(C(=O)NCc2ccccc2)=C(C)N1`, the TGI is more than 100 µM.
`O=S1(=O)c2ccccc2NC(c2ccc3ccccc3c2)CC1c1ccccc1F` (stereo not given) had a TGI of more than 100 µM.

Another experiment has as its system NCI-H23 lung. Nature of the experiment: DTP human tumour cell line panel, 48 h.
The compound `O=C(O)c1ccccc1[Se][Se]c1ccccc1C(=O)O` yielded a TGI of more than 100 µM.
The compound `CC(C)=CC(=O)C1c2cccc(O)c2C(=O)c2c(O)cc(C)cc21` (stereo not given) returned a TGI of 6.55 µM.
Turning to `O=C(O)CCc1coc2ccc(O)cc12`, the TGI is more than 100 µM.
`Cc1ccc(N=Nc2ccc(N(CCC#N)CCC#N)cc2C)c(Br)c1`: the concentration for total growth inhibition (TGI) was more than 100 µM.
Regarding `CC(C)C/C(CC(=O)CCC(=O)Nc1ccccc1[N+](=O)[O-])=N\NC(=O)c1cc2ccccc2cc1O`, the TGI was more than 100 µM.
`CCOc1ccc(NC(=O)C(=O)CC(=O)c2c[n+](=O)c3cc(C)c(C)cc3n2[O-])cc1` had a TGI of more than 100 µM.
Same read-out and setting: with `O=CC[C@H]1C(=O)C[C@@H]2CCC[C@@H]21` the figure was more than 100 µM; with `O=C(N/C(=C\c1ccc(/C=C(\NC(=O)c2ccccc2)c2nc3cc([N+](=O)[O-])ccc3[nH]2)cc1)c1nc2cc([N+](=O)[O-])ccc2[nH]1)c1ccccc1`, more than 100 µM.
The compound `COC(CN1C(=O)c2cccc3cccc(c23)C1=O)OC` showed a concentration for total growth inhibition (TGI) of more than 100 µM.
For the compound `CCCCCCCCCCCCCCCCCC(CCCCCCCCCCCCCCCCC)OP(=O)(O)O`, the TGI is more than 100 µM.
As for `COC1(OC)CCC2C1C1CCC(OC)(OC)C21` (stereo not given), the TGI is more than 50 µM.
`CN1C(=O)C(C)(C)C2(SC(C)(C)C2(C)C)N(C)C1=S` (stereo not given) had a TGI of more than 100 µM.
The compound `COc1cc2c(cc1OC)-c1c3cc(O)ccc3nn[n+]1CC2` displayed a TGI of more than 100 µM.
`C/C(CC(=O)CCC(=O)Nc1cccc(C(F)(F)F)c1)=N\NC(=O)NN` returned a TGI of more than 100 µM.
On the same count and under the same terms, with `O=C(/C=C/c1ccccc1)NC1C=Nc2ccc(Cl)cc2NC1=O` (stereo not given) the figure was more than 100 µM; with `COc1ccccc1C12OC(=O)C1(C)Oc1ccccc1C2=O` (stereo not given), more than 100 µM; with `O=C1C2C(C(=O)N1OS(=O)(=O)c1ccccc1)N(Cc1ccccc1)C(=O)N2Cc1ccccc1` (stereo not given), more than 100 µM.
On to `O=C(COc1ccc(Br)cc1Br)N1N=C(c2ccc([N+](=O)[O-])o2)CC1(O)c1ccccc1` (stereo not given), for which the total growth inhibition concentration (TGI) stood at 36 µM.
In the case of `N#CC(c1ccc(Cl)cc1)c1cccc(C(C#N)c2ccc(Cl)cc2)n1` (stereo not given), the TGI was 57 µM. Against the preceding compound, the TGI is about 1.6-fold higher.
Regarding `O=C1C(=O)N(c2ccc(Cl)cc2Cl)C(=O)C(=O)C1c1nc2ccccc2s1`, the TGI was more than 100 µM.
`Clc1cc2nsnc2c(Cl)n1` returned a TGI of 39.9 µM. This counts as double-digit micromolar.
